From patent US6943191B1, “Disubstituted lavendustin A analogs and pharmaceutical composition comprising the analogs” (The United States of America as represented by the …, priority 1998, dated 2005)

Key:
Assay type in all cases: in vivo, human
[1] = tested on: OVCAR-5; experiment: Hollow fiber assay in mice, OVCAR-5; conditions: QD X 4, Day 4; for % T/C OVCAR-5 IP: IP fibers; for % T/C OVCAR-5 SC: SC fibers
Experimental: (§1) Compounds satisfying Formulas 1 and 2 also have been tested for in vivo activity in the hollow fiber assay. See Example 12 below for the procedure used for the in vivo tests. Each compound tested was tested against a minimum of 12 human cancer cell lines. Data is reported as % T/C (i.e., the […]) for each of the 2 compound doses against each of the cell lines with separate values calculated for the intraperitoneal and subcutaneous samples, with a target value for % T/C being about 50 or less.
(§2) Compounds were selected for further in vivo testing in standard subcutaneous xenograft models on the basis of several hollow fiber assay criteria. These criteria include: (1) a % T/C of 50 or less in 10 of the 48 possible test combinations (12 cell lines×2 sites×2 compound doses); (2) activity at a distance (intrapentoneal drug/subcutaneous culture) in a minimum of 4 of the 24 possible combinations; and/or (3) a net cell kill of 1 or more cell lines in either implant site. To simplify evaluation, a point system has been adopted which allows rapid assessment of a compound's activity. A value of 2 is assigned for each compound dose which results in a 50% or greater reduction in viable cell mass. The intraperitoneal and subcutaneous samples were scored separately so that criteria (1) and (2) could be evaluated. Compounds with a combined IP+SC score≧20, an SC score≧8, or a net cell kill of one or more cell lines were referred for xenograft testing. These criteria have been statistically validated by comparing the activity outcomes of greater than 80 randomly selected compounds in the hollow fiber assay and in the xenograft testing.
(§3) This example describes the method used for in vivo testing of mice. Human cancer cells were cultivated in polyvinylidene fluoride (PVDF) hollow fibers. A sample of each cancer cell line was implanted intraperitoneally and subcutaneously in mice. Each mouse received a total of 6 fibers, 3 intraperitoneally and 3 subcutaneously, representing 3 distinct cancer cell lines. Three mice were treated with compounds made according to the present invention at each of two test doses intraperitoneally using a QD×4 treatment schedule. […] Anticancer effects were assessed by determining viable cell mass for each of the coil line using a formazan dye (MTT) conversion assay. From this, the % TIC was calculated using the average optical density of the compound-treated samples divided by the average optical density of the vehicle controls. In addition, the net increase in cell mass was determined for each sample as samples of fiber cultures were assessed for viable cell mass on the day of implantation into mice. This allowed cytostatic and cytocidal capacities of these compounds to be assessed.

[2] = tested on: U251; experiment: Hollow fiber assay in mice, U251; conditions: QD X 4, Day 4; for % T/C U251 IP: IP fibers; for % T/C U251 SC: SC fibers
Experimental: as §1, §2, §3

[3] = tested on: UACC-62; experiment: Hollow fiber assay in mice, UACC-62; conditions: QD X 4, Day 4; for % T/C UACC-62 IP: IP fibers; for % T/C UACC-62 SC: SC fibers
Experimental: as §1, §2, §3

[4] = tested on: NCI-H23; experiment: Hollow fiber assay in mice, NCI-H23; conditions: QD X 4, Day 4; for % T/C NCI-H23 IP: IP fibers; for % T/C NCI-H23 SC: SC fibers
Experimental: as §1, §2, §3

[5] = tested on: NCI-H522; experiment: Hollow fiber assay in mice, NCI-H522; conditions: QD X 4, Day 4; for % T/C NCI-H522 IP: IP fibers; for % T/C NCI-H522 SC: SC fibers
Experimental: as §1, §2, §3

[6] = tested on: MDA-MB-435; experiment: Hollow fiber assay in mice, MDA-MB-435; conditions: QD X 4, Day 4; for % T/C MDA-MB-435 IP: IP fibers; for % T/C MDA-MB-435 SC: SC fibers
Experimental: as §1, §2, §3

[7] = tested on: SW-620; experiment: Hollow fiber assay in mice, SW-620; conditions: QD X 4, Day 4; for % T/C SW-620 IP: IP fibers; for % T/C SW-620 SC: SC fibers
Experimental: as §1, §2, §3

## O=C(OC12CC3CC(CC(C3)C1)C2)c1ccc(NCc2cc(O)ccc2O)cc1 [Compound 6, 4′-adamantylbenzoate-1′-N-2,5-dihydroxybenzylamine]
[1]; 33.50 mg/kg/dose IP
  % T/C OVCAR-5 IP: >100%
  % T/C OVCAR-5 SC: 87%
[1]; 50.00 mg/kg/dose IP
  % T/C OVCAR-5 IP: 46%
  % T/C OVCAR-5 SC: 75%
[2]; 33.50 mg/kg/dose IP
  % T/C U251 IP: 100%
  % T/C U251 SC: >100%
[2]; 50.00 mg/kg/dose IP
  % T/C U251 IP: >100%
  % T/C U251 SC: >100%
[3]; 33.50 mg/kg/dose IP
  % T/C UACC-62 IP: >100%
  % T/C UACC-62 SC: 99%
[3]; 50.00 mg/kg/dose IP
  % T/C UACC-62 IP: >100%
  % T/C UACC-62 SC: 99%
[4]; 33.50 mg/kg/dose IP
  % T/C NCI-H23 IP: 100%
  % T/C NCI-H23 SC: >100%
[4]; 50.00 mg/kg/dose IP
  % T/C NCI-H23 IP: >100%
  % T/C NCI-H23 SC: >100%
[5]; 33.50 mg/kg/dose IP
  % T/C NCI-H522 IP: 94%
  % T/C NCI-H522 SC: 89%
[5]; 50.00 mg/kg/dose IP
  % T/C NCI-H522 IP: 48%
  % T/C NCI-H522 SC: 89%
[6]; 33.50 mg/kg/dose IP
  % T/C MDA-MB-435 IP: >100%
  % T/C MDA-MB-435 SC: 94%
[6]; 50.00 mg/kg/dose IP
  % T/C MDA-MB-435 IP: 72%
  % T/C MDA-MB-435 SC: 99%
[7]; 33.50 mg/kg/dose IP
  % T/C SW-620 IP: >100%
  % T/C SW-620 SC: 94%
[7]; 50.00 mg/kg/dose IP
  % T/C SW-620 IP: >100%
  % T/C SW-620 SC: 80%
